US10538561B2, “Peptide for treating inflammatory diseases” (priority 2015, dated 2020)
Marks after values point to notes of the source that are not given here.

Tested on: VEGF
Assay: VEGF inhibition in keratinocytes (ELISA)
Format: cell-based, Human
Settings: HaCaT, 24 h
Method: Cell lines: Human Keratinocytes (HaCaT); test item: IS181; treatment regimen: single addition—24 hours; concentration range: 0.1 μg/ml-100 μg/ml. […] Cells were serum-starved for another 24 hours (0% FBS). Cells were treated with IS181 for 24 hours. Supernatants were collected and stored at −20° C. till analysed. Levels of VEGF were analysed in supernatants by ELISA. Percent inhibition of VEGF secretion was calculated with reference to untreated levels. Positive control: curcumin; retinoic acid (at non-cytotoxic concentrations).

Question: What does the source list for `CC1=C(/C=C/C(C)=C/C=C/C(C)=C/C(=O)O)C(C)(C)CCC1` [RA, retinoic acid, reference compound]?
Answer: Conc. of VEGF (pg/ml) (RA 1 μM): 2775.1* pg/ml; Conc. of VEGF (RA 10 μM): 2982.4 pg/mL; inhibition at 1 µM (Homo sapiens, RA 1 μM, read-out: % Inhibition of VEGF wrt untreated (basal) levels): 22.8%; inhibition at 10 µM (Homo sapiens, RA 10 μM, read-out: % Inhibition of VEGF wrt untreated (basal) levels): 17%
